Test results from PubChem BioAssay (NCI).
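All cell lines were grown in 96-well plates and treated with compound for 48 hours. The concentration for 50% growth inhibition is given as GI50. TGI marks complete inhibition of growth.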

Experiments:
Assay in all cases: DTP human tumour cell line panel, 48 h
[1] = tested on: RPMI-8226 leukemia
[2] = tested on: EKVX NSCLC
[3] = tested on: CCRF-CEM leukemia
[4] = tested on: UO-31 renal
[5] = tested on: MCF7 breast
[6] = tested on: NCI-H23 lung
[7] = tested on: SR leukemia
[8] = tested on: A549 NSCLC
[9] = tested on: UACC-257 melanoma
[10] = tested on: SW-620 colon
[11] = tested on: 786-0 renal
[12] = tested on: U251 CNS
[13] = tested on: HS 578T breast
[14] = tested on: OVCAR-5 ovarian
[15] = tested on: MDA-MB-435
[16] = tested on: MDA-MB-231 breast
[17] = tested on: NCI/ADR-RES ovarian
[18] = tested on: DU-145 prostate
[19] = tested on: SK-MEL-28 melanoma
[20] = tested on: HOP-62 NSCLC
[21] = tested on: M14 melanoma
[22] = tested on: COLO 205 colon
[23] = tested on: OVCAR-4 ovarian
[24] = tested on: IGROV1 ovarian
[25] = tested on: BT-549 breast
[26] = tested on: OVCAR-3 ovarian
[27] = tested on: SF-539 CNS
[28] = tested on: KM12 colon
[29] = tested on: CAKI-1 renal

## COC(=O)c1cc2c(cc1Cl)SC1=NN(C)C(N(C)C)N1S2(=O)=O (configuration not stated)
[1]
  GI50: > 100 µM
  TGI: > 100 µM
[2]
  GI50: > 100 µM
  TGI: > 100 µM
[3]
  GI50: > 100 µM
  TGI: > 100 µM
[4]
  GI50: > 100 µM
  TGI: > 100 µM
[5]
  GI50: > 100 µM
  TGI: > 100 µM
[6]
  GI50: > 100 µM
  TGI: > 100 µM
[7]
  GI50: > 100 µM
  TGI: > 100 µM
[8]
  GI50: > 100 µM
  TGI: > 100 µM
[9]
  GI50: > 100 µM
  TGI: > 100 µM
[10]
  GI50: > 100 µM
  TGI: > 100 µM
[11]
  GI50: > 100 µM
  TGI: > 100 µM
[12]
  GI50: > 100 µM
  TGI: > 100 µM
[13]
  GI50: > 100 µM
  TGI: > 100 µM
[14]
  GI50: > 100 µM
  TGI: > 100 µM
[15]
  GI50: > 100 µM
  TGI: > 100 µM
[16]
  GI50: > 100 µM
  TGI: > 100 µM
[17]
  GI50: > 100 µM
  TGI: > 100 µM
[18]
  GI50: > 100 µM
  TGI: > 100 µM
[19]
  GI50: > 100 µM
  TGI: > 100 µM
[20]
  GI50: > 100 µM
  TGI: > 100 µM
[21]
  GI50: > 100 µM
  TGI: > 100 µM
[22]
  GI50: > 100 µM
  TGI: > 100 µM
[23]
  GI50: > 100 µM
  TGI: > 100 µM
[24]
  GI50: > 100 µM
  TGI: > 100 µM
[25]
  GI50: > 100 µM
  TGI: > 100 µM
[26]
  GI50: > 100 µM
  TGI: > 100 µM
[27]
  GI50: > 100 µM
  TGI: > 100 µM
[28]
  GI50: > 100 µM
  TGI: > 100 µM
[29]
  GI50: > 100 µM
